For seven compounds, Kd and IC50 results are on record in patent publication US20250090699A1, “FAP TARGETING CYCLIC PEPTIDES AND CONJUGATES THEREOF” (Novartis AG, priority 2023, published 2025).

A word on the Kd: it is the concentration at which binding is half-saturated. A higher Kd goes with a looser complex. What is called IC50 is the concentration at which inhibition is half-maximal.

Where a name gives a salt, the structure may show the parent alone. Starred links: 1 amine or outer side, 2 acyl side, 3 side chain; linkers in the order of their positions; H or OH if unused. Non-standard residues stand in square brackets, D forms with d. Residues, ends and D or L forms follow the SMILES beside them. Groups on a side chain read outwards from the residue. Primed or numbered codes have the meaning given here. *: point of attachment. F(4OEtNHDOTA-Ga) = gallium complex of (S)-2,2',2''-(10-(2-((2-(4-(2-amino-2-carboxyethyl)phenoxy)ethyl)amino)-2-oxoethyl)-1,4,7,10-tetraazacyclododecane-1,4,7-triyl)triacetic acid (Phe with 4-O-ethylamino-DOTA-Ga), O=C([O-])CN1CCN(CC(=O)[O-])CCN(CC(=O)NCCOc2ccc(C[C@H](N[*:1])C(=O)[*:2])cc2)CCN(CC(=O)[O-])CC1.[Ga+3]; F(4amPEG2NHDOTA-Lu)″ = lutetium (S)-2,2',2''-(10-(1-(4-(2-amino-2-carboxyethyl)phenyl)-3,12-dioxo-5,8-dioxa-2,11-diazatridecan-13-yl)-1,4,7,10-tetraazacyclododecane-1,4,7-triyl)triacetic acid, O=C([O-])CN1CCN(CC(=O)[O-])CCN(CC(=O)NCCOCCOCC(=O)NCc2ccc(C[C@H](N[*:1])C(=O)[*:2])cc2)CCN(CC(=O)[O-])CC1.[Lu+3]; K(COpipzaa) = N6-(4-(carboxymethyl)piperazine-1-carbonyl)-L-lysine, O=C(NCCCC[C@H](N[*:1])C(=O)[*:2])N1CCN(CC(=O)[*:3])CC1; X4 = 4‑(carboxymethyl)piperazine‑1‑carbonyl, O=C(O)CN1CCN(C(=O)*)CC1; hS(Pr) = O-propyl-L-homoserine, CCCOCC[C@H](N[*:1])C(=O)[*:2]; DOTA = O=C(O)CN1CCN(CC(=O)O)CCN(CC(=O)*)CCN(CC(=O)O)CC1; Piperazinyl(4-CH2COOH) = O=C(O)CN1CCN(*)CC1; 3Pal(6-NH2) = Nc1ccc(C[C@H](N)C(=O)O)cn1; AEF = NCCOc1ccc(C[C@H](N)C(=O)O)cc1; NMeF = CN[C@@H](Cc1ccccc1)C(=O)O; Ahp(2) = CCCCC[C@H](N)C(=O)O; Cba = N[C@@H](CC1CCC1)C(=O)O; hSer = N[C@@H](CCO)C(=O)O; CO = O=C([*:1])[*:2]

Test [1] addresses T1, mouse FAP (Mus musculus, UniProt P97321).
T1 construct: biotinylated His, Avi tag, mouse FAP (26-761, FAP-M82Q5); His; Avi tag (biotinylated); purchased AcroBiosystems FAP-M82Q5
T1 sequence (P97321 26-761): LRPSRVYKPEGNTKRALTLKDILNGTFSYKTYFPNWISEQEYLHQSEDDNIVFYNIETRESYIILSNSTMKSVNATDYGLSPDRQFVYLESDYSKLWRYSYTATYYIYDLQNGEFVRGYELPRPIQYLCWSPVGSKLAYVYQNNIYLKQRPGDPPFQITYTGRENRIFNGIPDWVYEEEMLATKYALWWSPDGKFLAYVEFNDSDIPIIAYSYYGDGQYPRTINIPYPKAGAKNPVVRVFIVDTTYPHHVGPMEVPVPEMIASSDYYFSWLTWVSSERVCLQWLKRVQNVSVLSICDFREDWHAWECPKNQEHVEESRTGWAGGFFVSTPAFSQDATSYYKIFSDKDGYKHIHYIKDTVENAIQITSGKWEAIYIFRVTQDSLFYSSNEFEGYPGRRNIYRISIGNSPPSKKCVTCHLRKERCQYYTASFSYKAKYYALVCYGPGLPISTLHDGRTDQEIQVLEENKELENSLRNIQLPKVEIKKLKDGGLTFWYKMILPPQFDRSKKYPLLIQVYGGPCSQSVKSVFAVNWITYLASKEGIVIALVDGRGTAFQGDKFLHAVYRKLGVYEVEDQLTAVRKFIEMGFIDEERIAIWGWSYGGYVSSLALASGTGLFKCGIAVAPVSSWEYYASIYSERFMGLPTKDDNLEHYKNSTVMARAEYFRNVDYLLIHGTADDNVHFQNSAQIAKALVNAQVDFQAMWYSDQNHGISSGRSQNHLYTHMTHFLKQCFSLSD
Put plainly: Surface plasmon resonance (SPR) for peptide affinity, mouse FAP. The test is classed as binding. In a few lines:
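Biotinylated His/Avi-tagged FAP ectodomains (human 26-760, mouse 26-761) captured or immobilized on Biacore sensor chips; peptides run at 25 °C in HBS-EP+ pH 7.6 with 2% DMSO, single-cycle kinetics, 8 concentrations. KD from 1:1 binding-model fit of sensorgrams.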
In general terms: Surface plasmon resonance follows binding to a sensor surface in real time, without labels.

Another test concerns the target T2, human FAP (Homo sapiens, UniProt Q12884).
T2 construct: the biotinylated His, Avi tag, human FAP (26-760, FAP-H82Q6); His; Avi tag (biotinylated); purchased AcroBiosystems FAP-H82Q6
T2 sequence (Q12884 26-760): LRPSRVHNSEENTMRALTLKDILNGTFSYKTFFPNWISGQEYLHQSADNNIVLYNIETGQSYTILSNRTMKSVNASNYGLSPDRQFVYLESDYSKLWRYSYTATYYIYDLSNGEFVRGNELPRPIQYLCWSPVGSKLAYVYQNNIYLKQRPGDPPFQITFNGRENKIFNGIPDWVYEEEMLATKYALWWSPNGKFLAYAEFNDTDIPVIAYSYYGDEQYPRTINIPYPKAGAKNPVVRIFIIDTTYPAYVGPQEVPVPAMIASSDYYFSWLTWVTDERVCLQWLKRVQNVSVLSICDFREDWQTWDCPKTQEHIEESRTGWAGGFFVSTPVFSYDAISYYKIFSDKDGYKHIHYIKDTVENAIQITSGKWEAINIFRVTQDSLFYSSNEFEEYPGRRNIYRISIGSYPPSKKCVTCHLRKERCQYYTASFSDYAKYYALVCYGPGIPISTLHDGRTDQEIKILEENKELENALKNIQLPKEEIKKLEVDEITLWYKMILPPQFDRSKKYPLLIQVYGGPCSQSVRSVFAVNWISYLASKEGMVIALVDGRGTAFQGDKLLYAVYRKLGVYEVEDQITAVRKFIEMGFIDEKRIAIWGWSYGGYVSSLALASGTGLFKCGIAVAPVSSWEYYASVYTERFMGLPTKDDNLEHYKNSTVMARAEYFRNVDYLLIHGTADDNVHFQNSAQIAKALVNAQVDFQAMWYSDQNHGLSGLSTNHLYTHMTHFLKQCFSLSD
Kind of test: Enzymatic FAP competition assay (Z-Gly-Pro-AMC fluorescence), human FAP. In kind it is biochemical. The conditions noted are these: read-out: h. FAP, Enz., IC50. In short, it runs like this:
(§1)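 Biotinylated His/Avi-tagged FAP ectodomain (human 26-760, mouse 26-761) at 0.01 nM, preincubated 24 h with peptides (14 concentrations, up to 1 μM) in pH 7.5 phosphate, 150 mM NaCl, 0.05% Tween20, 1% DMSO. Then 50 μM Z-Gly-Pro-AMC, 4 h at 22-24° C; AMC fluorescence (380/460 nm) gave IC50 from duplicate points.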

In test [2] the target is T1, mouse FAP. Kind of test: Enzymatic FAP competition assay (Z-Gly-Pro-AMC fluorescence), mouse FAP. The test is classed as biochemical. To be noted: read-out: m. FAP, Enz., IC50. In short, it runs like this:
as §1

As for “Gly-Gly-NMePhe-F(4OEtNHDOTA-Ga)-Ahp-Trp-Gly-K(COpipzaa)-Asp-D-Pro (cyclo(GG[NMeF][F(4OEtNHDOTA-Ga)][Ahp(2)]WG[K(COpipzaa)]D[dP]); also: Ga complex of DOTA) [Example C50]”, in the test with mouse FAP [1], the Kd was less than 0.02 nM. The half-maximal inhibitory concentration (IC50) with human FAP was 0.046 nM; with mouse FAP [2], 0.052 nM.
In turn, `CCCCC[C@@H]1NC(=O)[C@H](Cc2ccc(O)cc2)NC(=O)[C@H](Cc2ccccc2)N(C)C(=O)CNC(=O)[C@H](CCO)NC(=O)[C@H]2CCCN2C(=O)[C@H](CC(=O)O)NC(=O)[C@H](Cc2ccc(O)cc2)NC(=O)CNC(=O)[C@H](Cc2c[nH]c3ccccc23)NC1=O` [Example A42, hSer-Gly-NMePhe-Tyr-Ahp-Trp-Gly-Tyr-Asp-D-Pro] (cyclo([Ahp(2)]WGYD[dP][hSer]G[NMeF]Y)) gave a Kd on mouse FAP [1] of 0.2 nM. The figures for the IC50 at human FAP and on mouse FAP [2] were 0.089 nM and 0.36 nM, respectively.
Taken in the same sequence, the figures for `CCCCC[C@@H]1NC(=O)[C@H](Cc2ccc(O)cc2)NC(=O)[C@H](Cc2ccccc2)N(C)C(=O)CNC(=O)CNC(=O)[C@H]2CCCN2C(=O)[C@H](CCCCNC(C)=O)NC(=O)[C@H](Cc2ccc(O)cc2)NC(=O)CNC(=O)[C@H](Cc2c[nH]c3ccccc23)NC1=O` [Example A55, Gly-Gly-NMePhe-Tyr-Ahp-Trp-Gly-Tyr-K(Ac)-D-Pro] (cyclo([Ahp(2)]WGYK(Ac)[dP]GG[NMeF]Y)) were 135 nM, 24 nM and 84 nM.
On the same counts, the results for `CCCCC[C@@H]1NC(=O)[C@H](Cc2ccc(O)cc2)NC(=O)[C@H](CC2CCC2)NC(=O)CNC(=O)CNC(=O)[C@H]2CCCN2C(=O)[C@H](CC(=O)O)NC(=O)[C@H](Cc2ccc(O)cc2)NC(=O)CNC(=O)[C@H](Cc2c[nH]c3ccccc23)NC1=O` [Example A60, Gly-Gly-cBuA-Tyr-Ahp-Trp-Gly-Tyr-Asp-D-Pro] (cyclo([Ahp(2)]WGYD[dP]GG[Cba]Y)) are 0.05 nM, 0.041 nM and 0.127 nM.
On the same counts, the results for `CCCCC[C@@H]1NC(=O)[C@H](Cc2ccc(OCCNC(=O)CN3CCN(CC(=O)O)CCN(CC(=O)O)CCN(CC(=O)O)CC3)cc2)NC(=O)[C@H](Cc2ccccc2)N(C)C(=O)CNC(=O)CNC(=O)[C@H]2CCCN2C(=O)[C@H](CC(=O)O)NC(=O)[C@H](CCCCNC(=O)N2CCN(CC(=O)O)CC2)NC(=O)CNC(=O)[C@H](Cc2c[nH]c3ccccc23)NC1=O` [Example B3, Gly-Gly-NMePhe-F(4OEtNHDOTA)-Ahp-Trp-Gly-K(COpipzaa)-Asp-D-Pro] (cyclo([AEF](DOTA)[Ahp(2)]WGK([CO-Piperazinyl(4-CH2COOH)])D[dP]GG[NMeF])) are 0.093 nM, 0.025 nM and 0.091 nM.
In turn, “Pro-Gly-NMePhe-F(4amPEG2NHDOTA-Lu)-hS(Pr)-Trp-Gly-K(COpipzaa)-Asp-D-Pro (cyclo(PG[NMeF][F(4amPEG2NHDOTA-Lu)″][hS(Pr)]WGK(X4)D[dP])) [Example C20]” gave a Kd with mouse FAP [1] of less than 0.031 nM. In addition, the half-inhibitory concentration (IC50) with human FAP was found to be 0.016 nM; with mouse FAP [2], 0.03 nM.
On the same counts, the results for `CCCCC[C@@H]1NC(=O)[C@H](Cc2ccc(OCCNC(=O)CN3CCN(CC(=O)O)CCN(CC(=O)O)CCN(CC(=O)O)CC3)cc2)NC(=O)[C@H](Cc2ccccc2)N(C)C(=O)CNC(=O)CNC(=O)[C@H]2CCCN2C(=O)[C@H](CC(=O)O)NC(=O)[C@H](Cc2ccc(N)nc2)NC(=O)CNC(=O)[C@H](Cc2c[nH]c3ccccc23)NC1=O` [Example B24, Gly-Gly-NMePhe-F(4OEtNHDOTA)-Ahp-Trp-Gly-3PyA(6NH2)-Asp-D-Pro, TFA salt] (cyclo([AEF](DOTA)[Ahp(2)]WG[3Pal(6-NH2)]D[dP]GG[NMeF])) are 0.066 nM, 0.012 nM and 0.108 nM.
